Test system: HMG-CoA reductase
Experiment: HMG-CoA Reductase Inhibition Assay (in vitro, intrinsic inhibitory activity)
Format: biochemical
Details: compactin assigned a value of 100; IC50 of test compound compared with that of compactin determined simultaneously; tested as sodium salt of dihydroxy acid form; solubilized rat liver microsomal enzyme
Experimental: The intrinsic HMG-CoA reductase inhibition activity of the claimed compounds is measured in the in vitro protocol published in J. Med. Chem., 28, P. 347-358 (1985) and described below:
Isolation of HMG-CoA Reductase. Male Holtzman Sprague-Dawley rate (225-250 g) were kept on reversed lighting and fed Purina rat chow containing 3% cholestyramine for 7 days preceding their sacrifice by CO2 asphyxiation. Livers were removed 6 hours into the dark cycle and used immediately to prepare microsomes. HMG-CoA reductase was solubilized from the freshly prepared microsome by the method of Heller and Shrewsbury [J. Boil Chem., 1976, 251,3815], and purified through the second ammonium sulfate precipitation step as described by Kleinsek et al., [Proc. Natl. Acad. Sci. USA, 1977, 74, 1431]. The enzyme preparation was tested for HMG-CoA reductase potency and diluted with 100 mM phosphate buffer (pH 7.2) so that 100 μL of the enzyme solution, when added to the assay control, gave a value of 50,000-60,000 dpm. The enzyme preparation was stored at -80° C.
HMG-CoA Reductase Inhibition Assay. The assay is essentially the procedure of Shefer et al., [J. Lipid Res., 1972, 13, 402]. The complete assay medium contained the following in a total volume of 0.8 mL: phosphate buffer, pH 7.2, 100 mM; MgCl2, 3 mM; NADP, 3 mM; glucose 6-phospate, 10 mM; glucose-6-phosphate dehydrogenase, 3 enzyme units; reduced glutathione, 50 mM; HMG-CoA (glutaryl-3-^14C, New England Nuclear), 0.2 mM (0.1 μCi); and partially purified enzyme stock solution, 100 μL.
Test compounds or compactin (after first being converted to the sodium salt of their dihydroxy acid form in situ by addition of 1N NaOH (1 equiv)) were added to the assay system in 10-μL volumes at multiconcentration levels. After a 40-minute incubation at 37° C. with shaking and exposure to air, the reaction was stopped by the addition of 0.4 mL of 8N HCl. After an additional 30-minute incubation period at 37° C. to ensure the complete lactonization of mevalonic acid to mevalonolactone, 0.2 mL of the mixture was added to an 0.5×5.0 cm column containing 100-200-mesh Bio-Rex 5, chloride form (Bio-Rad), wetted with distilled water, as described by Alberts et al. [J. Proc. Natl. Acad. Sci. U.S.A., 1980, 77, 3957]. The unreacted [^14 C]HMG-CoA was absorbed on the resin and the [^14 C]mevalonolacetone was eluted with distilled water (2×1 mL) directly into 7-mL scintillation vials. Five milliliters of Aquasol-2 (New England Nuclear) was added to each vial, and radioactivity was measured in a Packard Tri Carb Prias scintillation counter. IC50 values were determined by plotting percentage inhibition against test compound concentration and fitting a straight line to the resulting data by using the least-squares method. For estimation of relative inhibitory potencies, compactin was assigned a value of 100 and the IC50 value of the test compound was compared with that of compactin determined simultaneously.

| Structure (SMILES) | Relative Potency |
| --- | --- |
| C[C@H]1C=C2C=C[C@H](C)[C@H](CC[C@@H](O)C[C@@H](O)CC(=O)O)[C@H]2[C@@H](OC(=O)C2(C)CC2)C1 | 76 |
| C[C@H]1C=C2C=C[C@H](C)[C@H](CC[C@@H](O)C[C@@H](O)CC(=O)O)[C@H]2[C@@H](OC(=O)C2(C)CCC2)C1 | 171 |
| CSC1(C(=O)O[C@H]2C[C@@H](C)C=C3C=C[C@H](C)[C@H](CC[C@@H](O)C[C@@H](O)CC(=O)O)[C@H]32)CCC1 | 240 |
| C[C@H]1C=C2C=C[C@H](C)[C@H](CC[C@@H](O)C[C@@H](O)CC(=O)O)[C@H]2[C@@H](OC(=O)C2(CCCO)CCC2)C1 | 100 |
| C[C@H]1C=C2C=C[C@H](C)[C@H](CC[C@@H](O)C[C@@H](O)CC(=O)O)[C@H]2[C@@H](OC(=O)C2(Cc3ccc(O)cc3)CCC2)C1 | 200 |
| C[C@H]1C=C2C=C[C@H](C)[C@H](CC[C@@H](O)C[C@@H](O)CC(=O)O)[C@H]2[C@@H](OC(=O)C2(CO)CCC2)C1 | 88 |
| C[C@H]1C=C2C=C[C@H](C)[C@H](CC[C@@H](O)C[C@@H](O)CC(=O)O)[C@H]2[C@@H](OC(=O)C2(Cc3ccccc3)CCC2)C1 | 156 |
| C[C@H]1C=C2C=C[C@H](C)[C@H](CC[C@@H](O)C[C@@H](O)CC(=O)O)[C@H]2[C@@H](OC(=O)C2(C)CCCC2)C1 | 188 |
| CSC1(C(=O)O[C@H]2C[C@@H](C)C=C3C=C[C@H](C)[C@H](CC[C@@H](O)C[C@@H](O)CC(=O)O)[C@H]32)CCCC1 | 167 |
| C[C@H]1C=C2C=C[C@H](C)[C@H](CC[C@@H](O)C[C@@H](O)CC(=O)O)[C@H]2[C@@H](OC(=O)C2(C)CCCCC2)C1 | 217 |

Reference: US4847306A, “Antihypercholesterolemic compounds” (Merck & Co., Inc., priority 1988, dated 1989)
